Data published in ChEMBL document CHEMBL1201862, “PubChem BioAssay data set” (2004).
The source made the active and inactive calls.

Tests used:
cells [1] = format: functional, cell-based; details: HEK-CNG
Galanin receptor type 3 = target: T1, Galanin receptor type 3 (Homo sapiens, UniProt O60755); assay: Fluorescence-based cell-based primary high throughput dose response assay to identify antagonists of the Galanin Receptor 3 (GalR3).; format: functional
T1 sequence (O60755 whole entry): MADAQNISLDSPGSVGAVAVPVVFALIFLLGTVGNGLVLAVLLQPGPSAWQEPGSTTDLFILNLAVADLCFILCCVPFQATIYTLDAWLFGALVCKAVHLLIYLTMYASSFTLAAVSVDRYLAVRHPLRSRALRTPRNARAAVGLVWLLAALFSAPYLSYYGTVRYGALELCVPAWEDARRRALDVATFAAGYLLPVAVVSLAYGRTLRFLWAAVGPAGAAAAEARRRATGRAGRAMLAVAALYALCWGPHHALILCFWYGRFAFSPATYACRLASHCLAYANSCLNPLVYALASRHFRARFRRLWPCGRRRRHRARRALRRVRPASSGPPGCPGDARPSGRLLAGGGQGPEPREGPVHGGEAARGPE

Cytochrome P450 2D6 = Cytochrome P450 2D6 (Homo sapiens, UniProt P10635);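 also: CYP2D6 member of a cytochrome P450 panel assay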
Prothrombin = Prothrombin (Homo sapiens, UniProt P00734); assay: Thrombin 1536 HTS Dose Response Confirmation. [Related pubchem assays: 1046 (Thrombin 1536 HTS; hits were confirmed in this assay)]; format: functional
[2] = alpha-synuclein stem-loop luciferase translation blockers – H4 neuroglioma cells, luminescence, confirmation (AID 1988); format: functional, cell-based
[3] = luciferase reporter signal suppression in cells – H4 neuroglioma cells, luminescence, dose response (AID 1990); format: functional, cell-based
[4] = target: Voltage-dependent T-type calcium channel subunit alpha-1H (Homo sapiens, UniProt O95180); format: functional;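 also: channel activity triggered by adding a high calcium stimulation buffer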
[5] = Luminescence Cell-Based Dose Response HTS to Identify Inhibitors of 5'UTR Stem-Loop Driven Prion Protein mRNA Translation in H4 Neuroglioblastoma Cells. [Related pubchem assays: 1827 (Project Summary), 1813 (Primary HTS)]; format: functional
Beta-galactosidase = Beta-galactosidase (Escherichia coli, UniProt Q8VNN2); assay: Dose response counterscreen for EBI2 assay utilizing the enzyme, b-galactosidase.; format: functional
cells [6] = format: functional, cell-based
cells [7] = format: functional, cell-based; remark: listed apart in the source
[8] = target: T2, DNA repair protein RAD52 homolog (Homo sapiens, UniProt P43351); format: functional, biochemical
T2 sequence (P43351 whole entry): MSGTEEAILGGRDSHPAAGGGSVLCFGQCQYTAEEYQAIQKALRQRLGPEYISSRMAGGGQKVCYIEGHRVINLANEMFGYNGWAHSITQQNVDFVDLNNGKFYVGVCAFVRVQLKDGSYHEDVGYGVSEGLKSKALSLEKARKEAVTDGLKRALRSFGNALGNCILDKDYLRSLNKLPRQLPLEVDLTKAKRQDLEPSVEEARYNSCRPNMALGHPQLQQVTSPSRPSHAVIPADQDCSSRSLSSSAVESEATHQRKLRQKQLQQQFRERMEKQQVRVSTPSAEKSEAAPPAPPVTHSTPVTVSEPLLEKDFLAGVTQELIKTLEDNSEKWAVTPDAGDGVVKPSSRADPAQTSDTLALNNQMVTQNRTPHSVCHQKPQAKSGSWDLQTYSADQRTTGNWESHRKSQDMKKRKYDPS

[9] = target: T3, Rac GTPase-activating protein 1 (Homo sapiens, UniProt Q9H0H5); assay: blockers of MgcRacGAP-driven Rac1 GTP hydrolysis – biochemical, ADP Hunter fluorescence, primary and confirmatory, confirmation (AID 624330); format: functional
T3 sequence (Q9H0H5 whole entry): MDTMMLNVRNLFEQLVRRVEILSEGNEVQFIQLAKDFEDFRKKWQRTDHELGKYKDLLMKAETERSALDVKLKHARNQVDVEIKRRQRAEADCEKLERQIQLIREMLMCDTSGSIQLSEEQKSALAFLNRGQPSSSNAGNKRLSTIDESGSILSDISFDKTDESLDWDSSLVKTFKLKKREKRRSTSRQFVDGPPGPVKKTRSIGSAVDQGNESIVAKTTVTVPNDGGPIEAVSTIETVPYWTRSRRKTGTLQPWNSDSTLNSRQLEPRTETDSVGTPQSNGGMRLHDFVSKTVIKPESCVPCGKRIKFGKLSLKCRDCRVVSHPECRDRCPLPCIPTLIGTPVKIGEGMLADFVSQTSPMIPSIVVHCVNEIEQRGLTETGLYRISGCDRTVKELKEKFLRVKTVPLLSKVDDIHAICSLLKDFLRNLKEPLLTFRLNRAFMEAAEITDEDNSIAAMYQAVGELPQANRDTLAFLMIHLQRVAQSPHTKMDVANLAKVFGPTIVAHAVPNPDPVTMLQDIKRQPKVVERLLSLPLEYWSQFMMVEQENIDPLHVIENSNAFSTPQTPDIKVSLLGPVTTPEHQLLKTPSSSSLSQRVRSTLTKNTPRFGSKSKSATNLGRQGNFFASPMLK

[10] = viability loss in HeLa cells – cytotoxicity control for MgcRacGAP inhibitor project, dose response (AID 624300); format: functional
[11] = blockers of HIV-1 envelope-mediated cell-cell fusion – cherry-pick, dose response (AID 652057); format: functional, cell-based
[12] = blockers of HIV-1 ZM109 envelope-driven cell-cell fusion – HeLa effector, CEM target cells, luciferase, cherry-pick, dose response (AID 652058); format: functional, cell-based;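 also: luciferase signal from HIV-1 Env mediated cell-cell fusion of effector and target cells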
[13] = HIV-1 AD8 envelope cell-cell fusion blockers – cherry-pick, dose response (AID 652062); format: functional, cell-based;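 also: luciferase signal from cell-cell fusion driven by HIV-1 clade B AD8 Env; potency is for inhibitors of fusion seen as a drop in luminescence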

Sequence of Beta-galactosidase (Q8VNN2 whole entry): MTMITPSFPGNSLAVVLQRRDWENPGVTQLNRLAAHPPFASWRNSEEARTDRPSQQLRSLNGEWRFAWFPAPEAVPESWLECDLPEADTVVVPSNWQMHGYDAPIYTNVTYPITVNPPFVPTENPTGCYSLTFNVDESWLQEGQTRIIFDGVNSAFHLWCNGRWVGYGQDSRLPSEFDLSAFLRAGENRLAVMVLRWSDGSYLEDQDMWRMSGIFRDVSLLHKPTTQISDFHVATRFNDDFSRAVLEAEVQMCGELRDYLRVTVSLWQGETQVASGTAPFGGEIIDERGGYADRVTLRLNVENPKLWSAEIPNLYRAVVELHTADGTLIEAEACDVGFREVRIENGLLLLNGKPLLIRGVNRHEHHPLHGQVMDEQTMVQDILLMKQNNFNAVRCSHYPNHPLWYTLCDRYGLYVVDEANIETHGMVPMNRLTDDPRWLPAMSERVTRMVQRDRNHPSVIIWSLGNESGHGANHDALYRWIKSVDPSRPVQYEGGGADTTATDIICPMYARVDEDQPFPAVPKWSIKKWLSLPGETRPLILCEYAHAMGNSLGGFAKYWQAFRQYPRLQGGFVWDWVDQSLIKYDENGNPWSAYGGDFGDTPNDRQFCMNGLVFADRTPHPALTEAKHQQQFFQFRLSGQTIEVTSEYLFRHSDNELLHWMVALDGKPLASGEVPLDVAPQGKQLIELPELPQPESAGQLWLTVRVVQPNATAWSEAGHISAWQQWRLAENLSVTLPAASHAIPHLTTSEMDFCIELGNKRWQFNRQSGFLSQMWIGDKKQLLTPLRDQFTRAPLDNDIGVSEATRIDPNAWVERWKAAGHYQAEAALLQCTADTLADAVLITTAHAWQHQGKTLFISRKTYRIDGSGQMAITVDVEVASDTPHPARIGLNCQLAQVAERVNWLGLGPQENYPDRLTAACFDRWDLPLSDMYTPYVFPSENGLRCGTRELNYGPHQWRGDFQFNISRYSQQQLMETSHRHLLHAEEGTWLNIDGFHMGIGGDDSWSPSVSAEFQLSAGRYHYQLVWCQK
Sequence of Cytochrome P450 2D6 (P10635 whole entry): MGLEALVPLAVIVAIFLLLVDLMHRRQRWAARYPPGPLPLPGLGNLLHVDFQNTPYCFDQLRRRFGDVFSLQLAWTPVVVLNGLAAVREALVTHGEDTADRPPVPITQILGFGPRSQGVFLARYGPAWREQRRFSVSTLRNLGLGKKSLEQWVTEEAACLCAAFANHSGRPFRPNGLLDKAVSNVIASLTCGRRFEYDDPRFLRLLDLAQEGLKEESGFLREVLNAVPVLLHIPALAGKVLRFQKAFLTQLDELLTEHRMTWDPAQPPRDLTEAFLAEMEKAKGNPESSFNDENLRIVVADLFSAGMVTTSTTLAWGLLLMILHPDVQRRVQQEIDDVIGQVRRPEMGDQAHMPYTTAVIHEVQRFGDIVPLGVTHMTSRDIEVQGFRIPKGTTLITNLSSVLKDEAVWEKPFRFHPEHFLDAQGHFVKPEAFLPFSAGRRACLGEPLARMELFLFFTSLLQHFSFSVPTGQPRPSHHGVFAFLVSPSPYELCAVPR
Sequence of Voltage-dependent T-type calcium channel subunit alpha-1H (O95180 whole entry): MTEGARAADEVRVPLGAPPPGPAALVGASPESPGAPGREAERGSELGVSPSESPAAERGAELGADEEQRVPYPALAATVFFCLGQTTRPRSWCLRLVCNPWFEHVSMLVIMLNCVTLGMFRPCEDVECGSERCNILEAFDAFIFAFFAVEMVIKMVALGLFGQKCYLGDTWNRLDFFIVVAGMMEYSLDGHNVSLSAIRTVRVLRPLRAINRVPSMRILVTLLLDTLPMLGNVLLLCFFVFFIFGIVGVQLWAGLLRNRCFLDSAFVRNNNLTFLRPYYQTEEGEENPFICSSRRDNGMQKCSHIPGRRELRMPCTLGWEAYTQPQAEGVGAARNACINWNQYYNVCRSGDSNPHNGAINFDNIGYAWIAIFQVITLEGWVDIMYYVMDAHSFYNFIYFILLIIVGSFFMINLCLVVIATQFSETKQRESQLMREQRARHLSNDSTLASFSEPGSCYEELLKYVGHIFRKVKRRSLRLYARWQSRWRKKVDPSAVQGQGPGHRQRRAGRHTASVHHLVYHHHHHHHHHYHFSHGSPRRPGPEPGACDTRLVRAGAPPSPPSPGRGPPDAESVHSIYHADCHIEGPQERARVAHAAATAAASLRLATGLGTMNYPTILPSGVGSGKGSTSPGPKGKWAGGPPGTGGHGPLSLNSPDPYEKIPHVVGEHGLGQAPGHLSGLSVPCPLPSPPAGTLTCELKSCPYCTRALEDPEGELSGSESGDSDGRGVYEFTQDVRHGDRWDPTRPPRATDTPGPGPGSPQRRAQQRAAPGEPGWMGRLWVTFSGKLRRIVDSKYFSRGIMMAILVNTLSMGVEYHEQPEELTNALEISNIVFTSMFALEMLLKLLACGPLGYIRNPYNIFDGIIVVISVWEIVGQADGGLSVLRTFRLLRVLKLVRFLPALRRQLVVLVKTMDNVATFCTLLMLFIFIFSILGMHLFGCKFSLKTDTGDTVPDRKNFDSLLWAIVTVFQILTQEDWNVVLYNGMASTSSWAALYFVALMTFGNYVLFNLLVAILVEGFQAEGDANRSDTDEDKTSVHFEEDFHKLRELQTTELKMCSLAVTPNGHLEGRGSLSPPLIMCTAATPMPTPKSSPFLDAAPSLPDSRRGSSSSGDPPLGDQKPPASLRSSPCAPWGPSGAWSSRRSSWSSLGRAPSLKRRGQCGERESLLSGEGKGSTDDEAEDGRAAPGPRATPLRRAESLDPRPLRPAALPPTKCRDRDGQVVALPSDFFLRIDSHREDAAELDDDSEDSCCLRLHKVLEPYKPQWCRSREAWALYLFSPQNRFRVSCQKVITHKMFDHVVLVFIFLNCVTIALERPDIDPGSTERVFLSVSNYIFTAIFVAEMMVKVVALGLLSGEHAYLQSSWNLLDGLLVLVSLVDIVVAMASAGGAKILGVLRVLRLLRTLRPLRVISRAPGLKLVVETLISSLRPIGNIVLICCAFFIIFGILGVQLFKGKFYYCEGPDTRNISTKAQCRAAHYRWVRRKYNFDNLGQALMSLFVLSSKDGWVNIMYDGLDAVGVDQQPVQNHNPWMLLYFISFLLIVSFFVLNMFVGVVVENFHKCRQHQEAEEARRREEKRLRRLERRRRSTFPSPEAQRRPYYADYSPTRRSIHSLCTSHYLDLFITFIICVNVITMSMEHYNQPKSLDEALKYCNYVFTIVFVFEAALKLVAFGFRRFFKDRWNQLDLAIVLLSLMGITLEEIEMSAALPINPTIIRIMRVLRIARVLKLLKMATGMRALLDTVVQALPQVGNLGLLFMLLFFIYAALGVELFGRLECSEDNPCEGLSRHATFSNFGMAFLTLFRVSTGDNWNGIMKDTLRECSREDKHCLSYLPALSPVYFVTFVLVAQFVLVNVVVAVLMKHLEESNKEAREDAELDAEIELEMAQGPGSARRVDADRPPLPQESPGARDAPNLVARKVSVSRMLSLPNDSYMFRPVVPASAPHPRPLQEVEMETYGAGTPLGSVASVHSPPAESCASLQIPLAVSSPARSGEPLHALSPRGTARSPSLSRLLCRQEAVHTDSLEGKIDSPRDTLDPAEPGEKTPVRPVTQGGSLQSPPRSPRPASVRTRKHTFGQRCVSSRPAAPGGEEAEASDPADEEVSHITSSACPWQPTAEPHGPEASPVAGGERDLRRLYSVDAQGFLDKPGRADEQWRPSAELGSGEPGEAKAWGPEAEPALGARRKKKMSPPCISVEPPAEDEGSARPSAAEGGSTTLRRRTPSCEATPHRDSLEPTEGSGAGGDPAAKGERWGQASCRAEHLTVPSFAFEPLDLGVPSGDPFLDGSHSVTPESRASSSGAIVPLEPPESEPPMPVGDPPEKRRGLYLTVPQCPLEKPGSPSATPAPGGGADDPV

CO/C(O)=C1\C(C)=NC2=C(C(=O)CCC2)C1c1cn(Cc2ccc(Cl)cc2Cl)nc1-c1ccccc1 (stereo unspecified)
EC50 (cells [1]): > 29.9 µM (inactive) | IC50 (Galanin receptor type 3): 3.85 µM (active) | AC50 (Cytochrome P450 2D6): 3.55 µM (inconclusive)

Fc1ccc(Oc2cnc3ccccc3n2)cc1
IC50 (Prothrombin): > 50 µM (not active)

CCOC(=O)c1c(C)[nH]c(C)c1C(=O)Cn1nnc(-c2ccccc2C)n1
EC50 [2]: > 120 µM (not active) | EC50 [3]: > 60 µM (not active) | EC50 [4]: 5.31 µM (active) | EC50 [5]: 18.3 µM (active)

O=C(c1cc2cc(Cl)ccc2[nH]1)N1CCC2(CC1)OCCO2
IC50 (Beta-galactosidase): > 80 µM (inactive)

O=[N+]([O-])c1[nH]cnc1/C=C/c1ccccc1
EC50 (cells [6]): > 29.9 µM (inactive) | IC50 (cells [7]): > 29.9 µM (inactive)

Cc1c(C)n(C)c2ccc(C(=O)NCCCN3CCN(C)CC3)cc12
AC50 [8]: 7.04 µM (active)

COc1cc2c(cc1OC)C(/C=C/c1ccco1)=NCC2
IC50 [9]: 42.3 µM (active) | CC50 [10]: 100 µM (active)

Cc1noc(C)c1S(=O)(=O)N(C)C[C@@H]1Oc2ccc(NC(=O)Nc3cccc4ccccc34)cc2CC(=O)N([C@@H](C)CO)C[C@@H]1C
AC50 [11]: 4.83 µM (active) | AC50 [12]: 2.44 µM (active) | AC50 [13]: 9.04 µM (active)

COc1ccc(NC(=O)Nc2ccc3c(c2)C(=O)N([C@@H](C)CO)C[C@H](C)[C@H](CN(C)Cc2ccncc2)OCCCC[C@H](C)O3)cc1
AC50 [11]: 0.541 µM (active) | AC50 [12]: 0.412 µM (active) | AC50 [13]: 12.7 µM (active)

COc1cccc(/C=C/C(=O)N2CCN(S(=O)(=O)c3ccccc3)CC2)c1
IC50 (Beta-galactosidase): > 80 µM (inactive)
